According to patent US20140294745A1, “CORAL EXTRACT FOR SKIN WHITENING, MOISTURE RETENTION, ELASTICITY IMPROVEMENT, ANTI-INFLAMMATION AND OCCLUSION OF WOUNDS AND EXTRACTING METHOD THEREOF” (UNI-PRESIDENT BIOTECH CO., LTD., priority 2013, published 2014):

Assays:
Mushroom tyrosinase = Mushroom tyrosinase inhibition capability analysis; assay type: biochemical; settings: positive control, 100 μM
Protocol: In a 96 well plate, 70 μl PBS, 20 μl specimen solution having different concentrations is added into each pore, and the mixture is uniformly mixed. Next, 10 μl 12U tyrosinase is added to place the plate in the cultivation chest at 37 degrees Celsius to react for thirty minutes. 10 μl 15 mM L-dopa is further added, and after continuously placing the plate in the cultivation chest to react for thirty minutes, the variance of absorbance is measured at 492 nm wavelengths. By taking H2O or 50% EtOH as the control group, the anti-oxidation rate of the object to be tested is obtained by inhibition of tyrosinase % (IT %) as the following formula. When peroxidation rate of lipid inhibition is higher, antioxidative function is stronger. Inhibition of tyrosinase %, IT %=[1−(absorbance of sample at 492 nm)/(absorbance of the control group that is not added with samples at 492 nm)]×100.

[1] = tested on: zebra fishes (AB strain Danio rerio); test: Whitening activity analysis in vivo (zebra fish melanin); settings: 20 mM; immersed forty-eight hours
Excerpt: The test uses zebra fishes (AB strain Danio rerio), in which fish edge is above four months, as test brood fishes, and the fishes are bred in an acrylic water tank having a filter and a circulation system. Water temperature is controlled at 28.5 degrees Celsius, and light-dark cycle is respectively controlled at fourteen and ten hours.
The medicine to be tested must be dissolved in 100% DMSO solution, and finally concentration must also concern DMSO and medicine concentration.
Embryos that have been fertilized for nine hours is taken and injected into a 96 well culture dish, and three embryos and 100 μl Hank's buffer are disposed in each well. 100 μl taken from the prepared medicine is injected into each well, and after adequately and uniformly mixing the mixture, an orifice plate is covered to avoid draining water content away to change the concentration. […]
Obtained fish images are opened by image processing software (Image J 1.43 g; National Institute of Health, Bethesda, Md., U.S.A.), and under ranges where the minimum threshold is set at 0, and where the maximum threshold is set at 85, melanin of each group of zebra fishes is performed with quantitative analysis.

Mushroom tyrosinase inhibition capability (Mushroom tyrosinase) [%] | Compound | melanin content of zebra fishes [1] [%]
38.0 ± 0.4 | O=C1O[C@H]([C@@H](O)CO)C(O)=C1O [vitamin C] | –
– | OC[C@H]1O[C@@H](Oc2ccc(O)cc2)[C@H](O)[C@@H](O)[C@@H]1O [arbutin] | 50
